In BindingDB's records for doi:10.1021/jm401604x (University of Auckland, 2014):

assay: Inhibition of recombinant perforin (unknown origin)-mediated lysis of human [51Cr]-labelled Jurkat cells assessed as release of [51Cr] preincubated for 30 mins followed by addition of cells measured after 4 hrs by gamma counting analysis

IC50, > 20 µM:
CN1CCN(CCCN2Cc3cc(-c4ccc(/C=C5/NC(=S)NC5=O)s4)ccc3C2=O)CC1
O=C1NC(=S)N/C1=C/c1ccc(-c2ccccc2Cl)s1
O=C1NC(=S)N/C1=C/c1ccc(-c2ccc(C(=O)NCCN3CCOCC3)cc2)s1
O=C1NC(=S)N/C1=C/c1ccc(-c2ccccc2)s1
O=C1NC(=S)N/C1=C/c1ccc(-c2ccc(C(=O)N3CCOCC3)cc2)s1
CN(C)CCCN1Cc2cc(-c3ccc(/C=C4/NC(=S)NC4=O)s3)ccc2C1=O
